Assay results taken from US9040523B2, “Antifungal 5,6-dihydro-4H-pyrrolo[1,2-α][1,4]-benzodiazepines and 6H-pyrrolo[1,2-α][1,4]benzodiazepines substituted with benzene derivatives” (JANSSEN PHARMACEUTICA NV, priority 2010, dated 2015).

What was measured:
[1] = target: CYP2C9 (Homo sapiens, UniProt P11712); experiment: Human liver microsomal cytochrome P450 cocktail inhibition assay, Protocol C; conditions: human, liver microsomes, pH 7.4, probe tolbutamide (100 microM), 2C9 Tolbut pIC50, human liver microsomes 0.2 mg/ml
Protocol: (§1) Probe substrates and final assay concentrations with the appropriate internal standard are outlined in Table 6a.
(§2) Assays were performed in 0.1 M phosphate buffer (pH 7.4), containing 0.2 mg/ml human liver microsomes (BD Gentest) and a probe substrate mix consisting of: phenacetin, tolbutamide, S-mephenyloin, dextromethorphan, amodiaquine and midazolam (Table 6a) and a range of test compound concentrations (0 to 30 micromolar) in a total volume of 100 microliters. After a 10 min pre-incubation at 37° C., the reaction was started with addition of NADPH at a final concentration of 1.0 mM. […] The samples are centrifuged for 10 min at 4° C. at 4000 rpm and 60 microliters supernatant is diluted with 180 microliters water. Each sample is injected onto a UPLC/MS system for the simultaneous measurement of the probe substrate metabolites and their associated deuterated internal standards. Percentage inhibition is calculated according to: %-inhibition=(1−Ri/R)*100, whereby Ri and R are the metabolite to internal standard peak area ratios in the presence and absence of inhibitor respectively.
(§3) Percentage inhibition data are plotted against the Log transformed test compound concentration and after curve fitting the IC50-value is determined.

[2] = target: T1, Cytochrome P450 1A2 (Homo sapiens, UniProt P05177); experiment: as above; conditions: for 1A2_Phen pIC50: human liver microsomes 0.2 mg/ml, probe phenacetin 80 microM
T1 sequence (P05177 1-516): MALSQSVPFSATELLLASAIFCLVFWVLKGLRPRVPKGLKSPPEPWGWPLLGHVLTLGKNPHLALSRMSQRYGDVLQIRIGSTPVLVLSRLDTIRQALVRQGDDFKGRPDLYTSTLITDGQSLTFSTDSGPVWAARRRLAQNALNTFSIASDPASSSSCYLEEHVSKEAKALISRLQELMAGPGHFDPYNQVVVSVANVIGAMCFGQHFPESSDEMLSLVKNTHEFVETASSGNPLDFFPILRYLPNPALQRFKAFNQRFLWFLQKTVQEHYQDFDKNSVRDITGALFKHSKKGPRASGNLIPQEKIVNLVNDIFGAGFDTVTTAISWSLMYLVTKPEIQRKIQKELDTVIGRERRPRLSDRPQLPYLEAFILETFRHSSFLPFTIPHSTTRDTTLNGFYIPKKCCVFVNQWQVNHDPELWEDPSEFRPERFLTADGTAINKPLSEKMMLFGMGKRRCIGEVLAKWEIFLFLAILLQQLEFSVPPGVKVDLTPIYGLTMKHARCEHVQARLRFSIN
Protocol: as §1, §2, §3

[3] = target: Cytochrome P450 2C19 (Homo sapiens, UniProt P33261); experiment: as above; conditions: 2C19_S-Meph pIC50, human liver microsomes 0.2 mg/ml; probe S-mephenytoin 30 microM
Protocol: as §1, §2, §3

[4] = target: Cytochrome P450 2D6 (Homo sapiens, UniProt P10635); experiment: as above; conditions: 2D6_Dextro pIC50, human liver microsomes 0.2 mg/ml; probe dextromethorphan 3 microM
Protocol: as §1, §2, §3

[5] = target: T2, Cytochrome P450 2C8 (Homo sapiens, UniProt P10632); experiment: as above; assay type: in vitro ADME; conditions: human liver microsomes 0.2 mg/ml, probe amodiaquine 2 microM; for IC50: read-out: 2C8_Amod pIC50 (converted)
T2 construct: tissue BD Gentest; host or cells: human liver microsomes
T2 sequence (P10632 1-490): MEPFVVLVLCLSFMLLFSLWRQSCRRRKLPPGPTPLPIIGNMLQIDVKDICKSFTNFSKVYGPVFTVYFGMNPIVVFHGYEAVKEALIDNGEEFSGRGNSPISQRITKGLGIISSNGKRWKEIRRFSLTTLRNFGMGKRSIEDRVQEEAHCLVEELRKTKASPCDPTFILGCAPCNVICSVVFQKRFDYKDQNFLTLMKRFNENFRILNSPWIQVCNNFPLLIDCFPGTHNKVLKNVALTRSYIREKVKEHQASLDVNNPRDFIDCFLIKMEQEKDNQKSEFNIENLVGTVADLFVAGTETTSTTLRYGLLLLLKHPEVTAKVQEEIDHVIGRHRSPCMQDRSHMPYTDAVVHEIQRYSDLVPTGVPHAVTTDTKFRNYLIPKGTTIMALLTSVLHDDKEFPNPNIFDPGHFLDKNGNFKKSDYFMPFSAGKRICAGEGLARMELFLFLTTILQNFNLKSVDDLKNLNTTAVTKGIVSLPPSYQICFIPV
Protocol: as §1, §2, §3

[6] = target: Cytochrome P450 2C9 (Homo sapiens, UniProt P11712); experiment: as above; conditions: 2C9 Tolbut pIC50, human liver microsomes 0.2 mg/ml; probe tolbutamide 100 microM
Protocol: as §1, §2, §3

[7] = target: CYP3A4/5 (Homo sapiens, UniProt P08684); experiment: in vitro; conditions: liver microsomes, pH 7.4, probe midazolam (2 microM)
Protocol: as §1
After a 10 min pre-incubation at 37° C., the reaction was started with addition of NADPH at a final concentration of 1.0 mM. […] The samples are centrifuged for 10 min at 4° C. at 4000 rpm and 60 microliters supernatant is diluted with 180 microliters water. Each sample is injected onto a UPLC/MS system for the simultaneous measurement of the probe substrate metabolites and their associated deuterated internal standards.
as §3

[8] = test system: Sporothrix schenkii B62482; experiment: Antifungal activity in vitro (resazurin susceptibility screen), Inf. A; assay type: cell-based; conditions: Sporothrix, B62482, Sporothrix schenkii B62482; 27 °C, 4 days, resa time 24 hours; highest in-test concentration 64 μM; read-out: Inf. A pIC50 (converted)
Method in brief: (§4)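 First, serial dilutions of test compound are spotted onto plates, which may be stored dark at 4 °C for up to 2 weeks. Next, each well gets 10^3 cfu of fungus from cryopreserved stock diluted 1/1000 in medium. Untreated culture and RPMI-MOPS alone serve as plate controls.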

[9] = test system: Microsporum canis B68128; experiment: Antifungal activity in vitro (resazurin susceptibility screen), Inf. B; assay type: cell-based; conditions: Microsporum canis, B68128, Microsporum canis B68128; 27 °C, 9 days, resa time 24 hours; read-out: Inf. B pIC50 (converted)
Method in brief: (§5)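 Each well was inoculated with 10^3 cfu of fungus onto dried, pre-spotted compound serial dilutions in RPMI-MOPS medium, with fungal growth read by resazurin. Growth was referenced to drug-free culture (100%) and medium-only (0%) controls on each plate.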

[10] = test system: Trichophyton rubrum B68183; experiment: Antifungal activity in vitro (resazurin susceptibility screen), Inf. C; assay type: cell-based; conditions: Trichophyton rubrum B68183; 27 °C, 7 days, resa time 24 hours; read-out: Inf. C pIC50 (converted)
Method in brief: as §4

[11] = test system: Candida parapsilosis B66126; experiment: Antifungal activity in vitro (resazurin susceptibility screen), Inf. D; assay type: cell-based; conditions: Lodderomyces parapsilosis; Candida parapsilosis B66126; 37 °C, 24 hours, resa time 4 hours; read-out: Inf. D pIC50 (converted)
Method in brief: as §5

[12] = test system: Aspergillus fumigatus B42928; experiment: Antifungal activity in vitro (resazurin susceptibility screen), Inf. E; assay type: cell-based; conditions: Aspergillus fumigatus B42928; 27 °C, 48 hours, resa time 17 hours; read-out: Inf. E pIC50 (converted)
Method in brief: as §4

[13] = test system: Cryptococcus neoformans B66663; experiment: Antifungal activity in vitro (resazurin susceptibility screen), Inf. F; assay type: cell-based; conditions: Cryptococcus neoformans, B66663, Cryptococcus neoformans B66663; 37 °C, 24 hours, resa time 4 hours; read-out: Inf. F pIC50 (converted)
Method in brief: as §4

[14] = test system: Trichophyton mentagrophytes B70554; experiment: Antifungal activity in vitro (resazurin susceptibility screen), Inf. G; assay type: cell-based; conditions: Trichophyton mentagrophytes, B70554, Trichophyton mentagrophytes B70554; 27 °C, 7 days, resa time 24 hours; read-out: Inf. G pIC50 (converted)
Method in brief: as §5

[15] = test system: Scedosporium apiospermum IHEM3817; experiment: Antifungal activity in vitro (resazurin susceptibility screen), Inf. H; assay type: cell-based; conditions: 37 °C, 48 hours, resa time 17 hours, read-out: Inf. H pIC50 (converted)
Protocol: (§6) The standard susceptibility screen was performed in 96-well plates (U-bottom, Greiner Bio-One). […] These serial dilutions (10 n1) were then spotted onto test-plates that could be stored in the dark at 4° C. for a maximum period of 2 weeks. […] The different fungal species/isolates (Table 3a) were cryopreserved and 1/1000 diluted in medium just prior to use. A standard inoculum of 200 μl containing 10^3 colony-forming unit (cfu) was then added to each well. A positive control (100% growth=fungal culture without antifungal) and a negative control (0% growth ═RPMI-MOPS medium) were included on each plate. […] [table]

[16] = test system: Scedosporium prolificans IHEM21157; experiment: Antifungal activity in vitro (resazurin susceptibility screen), Inf. I; assay type: cell-based; conditions: Lomentospora prolificans, 37 °C, 48 hours, resa time 17 hours, read-out: Inf. I pIC50 (converted)
Protocol: as §6

[17] = test system: Rhizopus oryzae IHEM5223; experiment: Antifungal activity in vitro (resazurin susceptibility screen), Inf. J; assay type: cell-based; conditions: Rhizopus arrhizus, 37 °C, 24 hours, resa time 6 hours, read-out: Inf. J pIC50 (converted)
Protocol: as §6

[18] = test system: Rhizomucor miehei IHEM13391; experiment: Antifungal activity in vitro (resazurin susceptibility screen), Inf. K; assay type: cell-based; conditions: 37 °C, 48 hours, resa time 17 hours, read-out: Inf. K pIC50 (converted)
Protocol: as §6

[19] = test system: Mucor circinelloides IHEM21105; experiment: Antifungal activity in vitro (resazurin susceptibility screen), Inf. L; assay type: cell-based; conditions: 27 °C, 48 hours, resa time 17 hours, read-out: Inf. L pIC50 (converted)
Protocol: as §6

[20] = Liver metabolic stability assay, hLM; assay type: in vitro ADME, human; conditions: human liver microsomes, 1 mg protein/ml, 5 μM test compound, 15 min, 37 °C
[21] = Liver metabolic stability assay, mLM; assay type: in vitro ADME; conditions: mouse liver microsomes, 1 mg protein/ml, 5 μM test compound, 15 min, 37 °C
Protocol: Liver preparations (microsomal fractions) were obtained from BD Gentest (San Jose, Calif., US). Metabolic stability was assessed using the following assay conditions. […] The mixture was pre-incubated at 37° C. for 5 min and the enzymatic reaction was started by addition of 5 μM test compound. After 0 (control) and 15 minutes (min), the reactions were terminated by addition of […] (500 μl). The precipitated material was removed by centrifugation at 1200 g for 10 min. The supernatant was analysed by LC-MS/MS on a ThermoFinnigan LCQ Deca XP ion-trap mass spectrometer equipped with an atmospheric pressure chemical ionisation source. Calculation of %-compound remaining was as described by Kantharaj et al. 2003 ((Kantharaj E., Tuytelaars A, Proost P E A, Ongel Z, van […] (2003). Simultaneous measurement of drug metabolic stability and identification of metabolites using ion-trap mass spectrometry.

[22] = Liver metabolic stability assay, gpLM; assay type: in vitro ADME, guinea pig; conditions: guinea pig microsomes, 1 mg protein/ml, 5 μM test compound, 15 min, 37 °C

Sequence of Cytochrome P450 2C19 (P33261 whole entry): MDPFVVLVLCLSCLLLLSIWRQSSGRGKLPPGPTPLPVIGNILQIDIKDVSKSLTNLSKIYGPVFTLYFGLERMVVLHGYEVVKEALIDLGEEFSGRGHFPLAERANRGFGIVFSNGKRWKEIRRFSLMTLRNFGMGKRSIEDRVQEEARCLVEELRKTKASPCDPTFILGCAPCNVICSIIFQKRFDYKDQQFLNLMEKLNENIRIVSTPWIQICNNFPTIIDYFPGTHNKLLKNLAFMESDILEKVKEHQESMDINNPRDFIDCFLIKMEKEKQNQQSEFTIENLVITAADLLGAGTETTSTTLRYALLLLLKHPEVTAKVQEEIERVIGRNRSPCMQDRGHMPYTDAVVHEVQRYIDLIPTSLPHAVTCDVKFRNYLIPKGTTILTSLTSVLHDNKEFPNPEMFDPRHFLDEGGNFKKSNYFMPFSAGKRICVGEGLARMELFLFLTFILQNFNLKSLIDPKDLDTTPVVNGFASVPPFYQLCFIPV
Sequence of Cytochrome P450 2D6 (P10635 whole entry): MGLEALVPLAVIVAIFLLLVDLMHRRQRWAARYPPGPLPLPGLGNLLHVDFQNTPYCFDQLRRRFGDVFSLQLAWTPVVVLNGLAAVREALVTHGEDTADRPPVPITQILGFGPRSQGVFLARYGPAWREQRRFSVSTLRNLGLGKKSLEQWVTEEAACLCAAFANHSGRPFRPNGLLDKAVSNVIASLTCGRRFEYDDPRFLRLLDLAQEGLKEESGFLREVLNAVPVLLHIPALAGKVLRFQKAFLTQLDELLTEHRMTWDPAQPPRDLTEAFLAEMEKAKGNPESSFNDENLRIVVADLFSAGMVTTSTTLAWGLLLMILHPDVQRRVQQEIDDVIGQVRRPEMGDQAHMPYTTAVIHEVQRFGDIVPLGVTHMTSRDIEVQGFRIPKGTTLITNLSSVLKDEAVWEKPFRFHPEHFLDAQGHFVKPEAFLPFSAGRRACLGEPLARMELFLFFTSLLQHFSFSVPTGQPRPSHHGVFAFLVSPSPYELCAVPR
Sequence of CYP3A4/5 (P08684 2-503): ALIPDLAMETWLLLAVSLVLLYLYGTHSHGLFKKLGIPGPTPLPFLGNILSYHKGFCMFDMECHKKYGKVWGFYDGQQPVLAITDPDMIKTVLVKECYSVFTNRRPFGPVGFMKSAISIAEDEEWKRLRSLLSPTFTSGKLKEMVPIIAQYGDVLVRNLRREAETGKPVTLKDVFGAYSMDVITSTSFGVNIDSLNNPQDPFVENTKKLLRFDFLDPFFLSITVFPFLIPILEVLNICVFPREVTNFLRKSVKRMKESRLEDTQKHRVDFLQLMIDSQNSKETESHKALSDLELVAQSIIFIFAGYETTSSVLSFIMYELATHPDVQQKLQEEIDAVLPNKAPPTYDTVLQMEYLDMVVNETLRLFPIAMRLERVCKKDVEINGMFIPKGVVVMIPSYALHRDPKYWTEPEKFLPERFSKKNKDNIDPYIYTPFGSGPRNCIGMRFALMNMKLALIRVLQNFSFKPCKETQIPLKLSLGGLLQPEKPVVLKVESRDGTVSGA
Sequence of CYP2C9 (P11712 whole entry): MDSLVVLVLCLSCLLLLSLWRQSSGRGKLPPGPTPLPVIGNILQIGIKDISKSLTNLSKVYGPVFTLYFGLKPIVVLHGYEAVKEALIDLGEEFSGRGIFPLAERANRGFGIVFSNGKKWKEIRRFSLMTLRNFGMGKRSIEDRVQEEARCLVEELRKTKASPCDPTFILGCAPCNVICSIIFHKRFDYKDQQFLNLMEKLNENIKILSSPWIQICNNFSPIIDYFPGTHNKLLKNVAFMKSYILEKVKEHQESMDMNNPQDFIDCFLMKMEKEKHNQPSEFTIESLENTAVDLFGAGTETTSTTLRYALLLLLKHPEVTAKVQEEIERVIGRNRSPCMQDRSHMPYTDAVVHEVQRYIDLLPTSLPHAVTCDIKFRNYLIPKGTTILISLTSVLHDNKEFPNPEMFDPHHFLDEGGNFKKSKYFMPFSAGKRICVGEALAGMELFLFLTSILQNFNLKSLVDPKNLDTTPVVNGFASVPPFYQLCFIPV
Sequence of Cytochrome P450 2C9 (P11712 whole entry): as above

SMILES | IC50 at 10 min [1] [µM] | IC50 [2] [µM] | IC50 [3] [µM] | IC50 [4] [µM] | IC50 [5] [µM] | 1A2_Phen pIC50 [2] | IC50 [6] [µM] | IC50 at 10 min [7] [µM] | other results
CCc1ccc(C2NCc3c(Cl)cccc3-n3cccc32)cc1 (centres unmarked) | 10 | > 10 | 1 | 3.16 | > 10 | – | – | – | –
Br.CCc1ccc(C2NCc3c(Cl)cccc3-n3cccc32)cc1 (centres unmarked) | – | – | 0.794 | 2 | – | <5.0 | 7.94 | > 10 | 2C8_Amod pIC50 [5]: <5.0
CCc1ccc(C2NCc3ccc(Cl)cc3-n3cccc32)cc1 (centres unmarked) | 10 | > 10 | 0.316 | 3.98 | > 10 | – | – | 6.31 | –
CS(=O)(=O)c1ccc(C2=NCc3c(Cl)cccc3-n3cccc32)cc1 [Compound 28, 7-chloro-4-[4-(methylsulfonyl)phenyl]-6H-pyrrolo[1,2-a][1,4]benzodiazepine] | – | – | – | – | – | – | – | – | IC50 [8]: > 63.1 µM; IC50 [9]: 1.26 µM; IC50 [10]: 2 µM; IC50 [11]: > 63.1 µM; IC50 [12]: > 63.1 µM; IC50 [13]: > 63.1 µM; IC50 [14]: 2.51 µM; IC50 [15]: > 63.1 µM; IC50 [16]: 7.94 µM; IC50 [17]: > 63.1 µM; IC50 [18]: > 63.1 µM; IC50 [19]: > 63.1 µM; %-compound metabolised_Met_hLM [20]: 2%; %-compound metabolised Met_mLM [21]: 41%; %-compound metabolised Met_gpLM [22]: 21%; melting point: 218.5 to 219.9 °C
Br.CC(=O)c1ccc(C2NCc3c(Cl)cccc3-n3cccc32)cc1 (centres unmarked) [drawing 96] | – | – | 1.26 | 2 | – | <5.0 | 2.51 | 5.01 | –
